Reference: patent publication US7699995B2, “Water treatment method” (priority 2006, dated 2010)
≈ marks a conversion by molar mass, not a printed value.

Key:
[1] = Stability in pH 9 buffer solution at 70° C. (HPLC); conditions: for loss of active ingredient: day 56
Protocol: pH 9 buffer containing 0.069 M boric acid, 0.017 M citric acid, 0.066 M sodium phosphate was prepared in distilled water. Biocide was dosed into the pH 9 buffer solution and stored at 70° C. in a heat block. The samples were examined for active ingredient concentration at the time points after 5 hours, and 1, 3, 7, 23, 30, 35 and 56 days. Initial biocide doses were 166 ppm MI, 199 ppm BIT and 150 ppm BNPD.
The samples were evaluated for active ingredient concentration via High Pressure Liquid Chromatography. Samples were taken from the heating blocks and allowed to cool to room temperature for 30 minutes. The samples were then diluted 1:20 in deionized water by adding 9.5 ml of deionized water to 0.5 grams of the samples in a 25 ml glass sample vial. The samples were mixed for 15 seconds and transferred to HPLC sample vials for analysis.

[2] = Stability with oxidizing and reducing agents at pH 7 and pH 9 (HPLC); format: physicochemical
Protocol: Oxidizing agents (2 mM) included hydrogen peroxide (H2O2; 68 ppm), t-butyl hydrogen peroxide (t-BHP; 180 ppm), and potassium persulfate (K2O8S2; 540 ppm). Reducing agents (2 mM) included iso-ascorbic acid (IAA; 352 ppm) and sodium bisulfite (NaHSO3; 208 ppm). Biocides were tested at 1 mM concentrations, representing 115 ppm MI and […].
The pH 7.0 buffer contained 0.00426% monopotassium phosphate plus 0.019% magnesium chloride hexahydrate. The pH 9.0 buffer contained 0.0046 M hydrochloric acid plus 0.013 M borax. Stock solutions of the redox agents were prepared and added to aliquots of each buffer to give 2 mM concentrations. The biocides were then added to give 1 mM concentrations. The samples were stored at 25° C. and analyzed for biocide level by HPLC at 0, 2 and 8 days.

[3] = tested on: Mycobacterium immunogenum (ATCC 700505); experiment: MBC test, transfer from MIC plates to fresh media; format: cell-based; conditions: M. immunogenum, no survivors after 2 days in fresh media
Protocol: (§1) Bacterial strains tested included Mycobacterium chelonae (ATCC 14472) and Mycobacterium immunogenum (ATCC 700505). Mycobacterial cultures were grown overnight at 30° C. (M. immunogenum) or 37° C. (M. chelonae), in a rotary shaking bath in Middlebrook […] with Middlebrook enrichment. A 1:20 dilution of the overnight culture was made into the appropriate test media and inoculated to give a final concentration of 10^6 to 10^7 CFU/ml.
(§2) MBC tests were conducted by transferring samples from the MIC test samples into fresh media and observing for growth of the culture. Growth was determined as above. In this test using Biomek 2000 Workstation, 10 μl samples taken from the 96-well MIC plates were placed in […] of fresh growth media to determine the number of surviving organisms for the same gradient of biocide concentrations. These plates were incubated and read in the same fashion as the MIC plates.

[4] = tested on: Mycobacterium chelonae (ATCC 14472); experiment: MBC test, transfer from MIC plates to fresh media; format: cell-based; conditions: M. chelonae, no survivors after 2 days in fresh media
Protocol: as §1, §2

[5] = tested on: natural, resident populations of Mycobacterium; experiment: Eradication of mycobacteria in naturally contaminated in-use metalworking fluids; format: cell-based; conditions: for No. of Fluids with ≧99% Kill (2-log reduction): of six fluids, 48 hours
Protocol: A comparative study was conducted evaluating six metalworking fluid biocides versus natural, resident populations of Mycobacterium from six in-use metalworking fluids. CMIT/MIT, CMIT/MIT/MCC, MIT, BIT, triazine, and PCMC microbicides were tested under controlled laboratory conditions to determine their efficacy at the maximum manufacturer's recommended dose rate (Table 2). The metalworking fluids were known to contain high levels of mycobacteria prior to dosing with biocides. Samples were then dosed with biocides, incubated with agitation at room temperature and viable mycobacteria counts determined after 48 hours by plating onto Middlebrook 7H10 medium, with Tween 80, glycerin, cyclohexamide, chloramphenicol, and gentamycin to suppress the growth of unwanted microorganisms.
The six metalworking fluid samples containing mycobacteria study from Example 7, were also tested using the same biocides with dosing at 50% of the maximum manufacturer's recommended rate (Table 2) under the same conditions. These metalworking fluids were known to contain high levels of mycobacteria prior to dosing with biocides. Samples were then dosed with biocides, incubated with agitation at room temperature and viable mycobacteria counts determined after 48 hours by plating onto Middlebrook 7H10 medium, with Tween 80, glycerin, cyclohexamide, chloramphenicol, and gentamycin to suppress the growth of unwanted microorganisms.

[6] = Stability in high pH metalworking fluid use dilutions (HPLC); format: physicochemical; conditions: for % MIT Remaining: 25° C.
Protocol: Stability studies were conducted in three high pH metalworking fluid use dilutions to compare the persistence of MIT biocide versus CMIT biocide, tested alone and in combination with MCC). Aliquots of the use-diluted fluids were dosed with 17.5 ppm active CMIT/MIT and CMIT/MIT/MCC and stored at 25° C. Biocide concentrations were determined at time zero and weekly using high performance liquid chromatography (HPLC) analysis.

Fungi = experiment: MIC, average over fungi; format: cell-based
Protocol: (§3) Minimum inhibitory concentration (MIC) studies were conducted to determine the lowest level of biocide required to inhibit growth of bacteria and fungi. Tests were conducted in 96-well microtiter plates. Biocides were added to growth media in the plates and serially diluted to obtain a range of concentrations. Bacterial tests were conducted in trypticase soy broth (TSB; pH 7) using an overnight inoculum added at 10^6 colony forming units per ml. […] Fungal tests were conducted in malt extract broth (MEB; pH 4.7) using an 5-7 day inoculum added at 10^4 colony forming units per ml.

Bacteria = experiment: MIC, average over bacteria; format: cell-based
Protocol: as §3

[7] = K-persulfate 2 mM, pH 7, 25° C.
[8] = K-persulfate 2 mM, pH 9, 25° C.
[9] = Na bisulfite 2 mM, pH 7, 25° C.
[10] = Na bisulfite 2 mM, pH 9, 25° C.
[11] = Fluid 1, 48 hours, 50% of recommended maximum dose
[12] = Fluid 1, 48 hours, 100% of recommended maximum dose
[13] = Fluid 2, 48 hours, 50% of recommended maximum dose
[14] = Fluid 2, 48 hours, 100% of recommended maximum dose
[15] = Fluid 3, 48 hours, 50% of recommended maximum dose
[16] = Fluid 3, 48 hours, 100% of recommended maximum dose
[17] = Fluid 4, 48 hours, 50% of recommended maximum dose
[18] = Fluid 4, 48 hours, 100% of recommended maximum dose
[19] = Fluid 5, 48 hours, 50% of recommended maximum dose
[20] = Fluid 5, 48 hours, 100% of recommended maximum dose
[21] = Fluid 6, 48 hours, 50% of recommended maximum dose
[22] = Fluid 6, 48 hours, 100% of recommended maximum dose

O=c1[nH]sc2ccccc12 [BIT, 1,2-benzisothiazolin-3-one, reference compound]
Percent Remaining after: 5 hr [1]: 98% | Percent Remaining after: 1 day [1]: 97% | Percent Remaining after: 3 day [1]: 94% | Percent Remaining after: 7 day [1]: 92% | Percent Remaining after: 23 day [1]: 86% | Percent Remaining after: 30 day [1]: 71% | Percent Remaining after: 35 day [1]: 63% | Percent Remaining after: 56 day [1]: 68% | loss of active ingredient [1]: 32% | Percent Remaining after: 0 [1]: 100% | % Remaining after 2 Days ([2]; H2O2 2 mM, pH 7, 25° C.): 39% | % Remaining after 8 Days ([2]; H2O2 2 mM, pH 7, 25° C.): 15% | % Remaining after 2 Days ([2]; H2O2 2 mM, pH 9, 25° C.): 8% | % Remaining after 8 Days ([2]; H2O2 2 mM, pH 9, 25° C.): 0% | % Remaining after 2 Days ([2]; IAA 2 mM, pH 7, 25° C.): 89% | % Remaining after 8 Days ([2]; IAA 2 mM, pH 7, 25° C.): 86% | % Remaining after 2 Days ([2]; IAA 2 mM, pH 9, 25° C.): 77% | % Remaining after 8 Days ([2]; IAA 2 mM, pH 9, 25° C.): 75% | % Remaining after 2 Days [2, 7]: 0% | % Remaining after 8 Days [2, 7]: 0% | % Remaining after 2 Days [2, 8]: 0% | % Remaining after 8 Days [2, 8]: 0% | % Remaining after 2 Days [2, 9]: 38% | % Remaining after 8 Days [2, 9]: 28% | % Remaining after 2 Days [2, 10]: 82% | % Remaining after 8 Days [2, 10]: 77% | % Remaining after 2 Days ([2]; no redox agent, pH 7, 25° C.): 100% | % Remaining after 8 Days ([2]; no redox agent, pH 7, 25° C.): 100% | % Remaining after 2 Days ([2]; no redox agent, pH 9, 25° C.): 100% | % Remaining after 8 Days ([2]; no redox agent, pH 9, 25° C.): 100% | % Remaining after 2 Days ([2]; t-BHP 2 mM, pH 7, 25° C.): 43% | % Remaining after 8 Days ([2]; t-BHP 2 mM, pH 7, 25° C.): 8% | % Remaining after 2 Days ([2]; t-BHP 2 mM, pH 9, 25° C.): 38% | % Remaining after 8 Days ([2]; t-BHP 2 mM, pH 9, 25° C.): 6% | Minimum Biocidal Concentration [3]: 188 ppm active | Minimum Biocidal Concentration [4]: 75 ppm active | Log Reduction in Mycobacterial Counts versus Control (no biocide) [5, 11]: 0.00 log | Log Reduction in Mycobacterial Counts versus Control (no biocide) [5, 12]: 0.00 log | Log Reduction in Mycobacterial Counts versus Control (no biocide) [5, 13]: 0.00 log | Log Reduction in Mycobacterial Counts versus Control (no biocide) [5, 14]: 0.00 log | Log Reduction in Mycobacterial Counts versus Control (no biocide) [5, 15]: 0.00 log | Log Reduction in Mycobacterial Counts versus Control (no biocide) [5, 16]: 0.60 log | Log Reduction in Mycobacterial Counts versus Control (no biocide) [5, 17]: 0.00 log | Log Reduction in Mycobacterial Counts versus Control (no biocide) [5, 18]: 0.00 log | Log Reduction in Mycobacterial Counts versus Control (no biocide) [5, 19]: 0.00 log | Log Reduction in Mycobacterial Counts versus Control (no biocide) [5, 20]: 0.06 log | Log Reduction in Mycobacterial Counts versus Control (no biocide) [5, 21]: 0.00 log | Log Reduction in Mycobacterial Counts versus Control (no biocide) [5, 22]: 0.00 log | No. of Fluids with ≧99% Kill (2-log reduction) ([5]; 50% of recommended maximum dose): 0 | No. of Fluids with ≧99% Kill (2-log reduction) ([5]; 100% of recommended maximum dose): 0

Cn1sccc1=O [MI, 2-methyl-4-isothiazolin-3-one]
Percent Remaining after: 5 hr [1]: 96% | Percent Remaining after: 1 day [1]: 96% | Percent Remaining after: 3 day [1]: 96% | Percent Remaining after: 7 day [1]: 93% | Percent Remaining after: 23 day [1]: 95% | Percent Remaining after: 30 day [1]: 101% | Percent Remaining after: 35 day [1]: 93% | Percent Remaining after: 56 day [1]: 102% | loss of active ingredient [1]: no loss | Percent Remaining after: 0 [1]: 100% | % Remaining after 2 Days ([2]; H2O2 2 mM, pH 7, 25° C.): 100% | % Remaining after 8 Days ([2]; H2O2 2 mM, pH 7, 25° C.): 100% | % Remaining after 2 Days ([2]; H2O2 2 mM, pH 9, 25° C.): 94% | % Remaining after 8 Days ([2]; H2O2 2 mM, pH 9, 25° C.): 88% | % Remaining after 2 Days ([2]; IAA 2 mM, pH 7, 25° C.): 100% | % Remaining after 8 Days ([2]; IAA 2 mM, pH 7, 25° C.): 96% | % Remaining after 2 Days ([2]; IAA 2 mM, pH 9, 25° C.): 105% | % Remaining after 8 Days ([2]; IAA 2 mM, pH 9, 25° C.): 103% | % Remaining after 2 Days [2, 7]: 90% | % Remaining after 8 Days [2, 7]: 75% | % Remaining after 2 Days [2, 8]: 93% | % Remaining after 8 Days [2, 8]: 73% | % Remaining after 2 Days [2, 9]: 29% | % Remaining after 8 Days [2, 9]: 26% | % Remaining after 2 Days [2, 10]: 70% | % Remaining after 8 Days [2, 10]: 78% | % Remaining after 2 Days ([2]; no redox agent, pH 7, 25° C.): 100% | % Remaining after 8 Days ([2]; no redox agent, pH 7, 25° C.): 100% | % Remaining after 2 Days ([2]; no redox agent, pH 9, 25° C.): 100% | % Remaining after 8 Days ([2]; no redox agent, pH 9, 25° C.): 100% | % Remaining after 2 Days ([2]; t-BHP 2 mM, pH 7, 25° C.): 99% | % Remaining after 8 Days ([2]; t-BHP 2 mM, pH 7, 25° C.): 102% | % Remaining after 2 Days ([2]; t-BHP 2 mM, pH 9, 25° C.): 98% | % Remaining after 8 Days ([2]; t-BHP 2 mM, pH 9, 25° C.): 96% | % MIT Remaining ([6]; Soluble Fluid 1 (pH 9.2), 2 wk): 95% | % MIT Remaining ([6]; Soluble Fluid 1 (pH 9.2), 4 wk): 100% | % MIT Remaining ([6]; Soluble Fluid 3 (pH 9.3), 2 wk): 95% | % MIT Remaining ([6]; Soluble Fluid 3 (pH 9.3), 4 wk): 100% | % MIT Remaining ([6]; Synthetic Fluid 2 (pH 9.4), 1 wk): 92% | % MIT Remaining ([6]; Synthetic Fluid 2 (pH 9.4), 3 wk): 94% | biocide active retained ([6]; after 3-4 weeks in all three high pH use-diluted fluids): greater than 90% | Minimum Biocidal Concentration [3]: 84 ppm active | Minimum Biocidal Concentration [4]: 40 ppm active | Log Reduction in Mycobacterial Counts versus Control (no biocide) [5, 11]: 3.48 log | Log Reduction in Mycobacterial Counts versus Control (no biocide) [5, 12]: 5.88 log | Log Reduction in Mycobacterial Counts versus Control (no biocide) [5, 13]: 3.80 log | Log Reduction in Mycobacterial Counts versus Control (no biocide) [5, 14]: 5.00 log | Log Reduction in Mycobacterial Counts versus Control (no biocide) [5, 15]: 0.00 log | Log Reduction in Mycobacterial Counts versus Control (no biocide) [5, 16]: 2.00 log | Log Reduction in Mycobacterial Counts versus Control (no biocide) [5, 17]: 2.00 log | Log Reduction in Mycobacterial Counts versus Control (no biocide) [5, 18]: 3.64 log | Log Reduction in Mycobacterial Counts versus Control (no biocide) [5, 19]: 0.06 log | Log Reduction in Mycobacterial Counts versus Control (no biocide) [5, 20]: 1.90 log | Log Reduction in Mycobacterial Counts versus Control (no biocide) [5, 21]: 1.78 log | Log Reduction in Mycobacterial Counts versus Control (no biocide) [5, 22]: 3.88 log | kill (minimum degree of efficacy) ([5]; in all six samples of contaminated fluids, maximum recommended dose): > 90% | MI: CMI + MI MIC Ratio (Fungi; fungi, ratio of average MICs): 46.8 | MIC (Fungi; read-out: MIC, Average): 63 µg/mL (≈ 547 µM) | MIC (Bacteria; average over the bacteria tested): 24 µg/mL (≈ 208 µM) | MI: CMI + MI MIC Ratio (Bacteria; bacteria, ratio of average MICs): 10.9
